Measurements as given in patent US10174067B2, “Type of cytidine derivative and application thereof” (priority 2014, dated 2019).
Marks after values point to notes of the source that are not given here.

Tests used:
[1] = for Weight change rate, Day 0 / Weight of mice, Day 0 / Weight change rate, Day 1 / Weight of mice, Day 1 / Weight change rate, Day 2 / Weight of mice, Day 2 / Weight change rate, Day 4 / Weight of mice, Day 4 / Weight change rate, Day 7 / Weight of mice, Day 7 / Weight change rate, Day 9 / Weight of mice, Day 9 / Weight change rate, Day 11 / Weight of mice, Day 11 / Weight change rate, Day 14 / Weight of mice, Day 14 / Weight change rate, Day 16 / Weight of mice, Day 16 / Weight change rate, Day 18 / Weight of mice, Day 18 / Weight change rate, Day 21 / Weight of mice, Day 21 / Weight change rate, Day 23 / Weight of mice, Day 23 / Weight change rate, Day 25 / Weight of mice, Day 25 / Weight change rate, Day 28 / Weight of mice, Day 28 / Weight change rate, Day 30 / Weight of mice, Day 30: G10-G16 groups, single IP 400 mg/kg; for Weight of mice, Day 0 / Weight change rate, Day 1 / Weight of mice, Day 1 / Weight change rate, Day 2 / Weight of mice, Day 2 / Weight change rate, Day 4 / Weight of mice, Day 4 / Weight change rate, Day 7 / Weight of mice, Day 7 / Weight change rate, Day 9 / Weight of mice, Day 9 / Weight change rate, Day 11 / Weight of mice, Day 11 / Weight change rate, Day 14 / Weight of mice, Day 14 / Weight change rate, Day 16 / Weight of mice, Day 16 / Weight change rate, Day 18 / Weight of mice, Day 18 / Weight change rate, Day 21 / Weight of mice, Day 21 / Weight change rate, Day 23 / Weight of mice, Day 23 / Weight change rate, Day 25 / Weight of mice, Day 25 / Weight change rate, Day 28 / Weight of mice, Day 28 / Weight change rate, Day 30 / Weight of mice, Day 30: Mean±SEM; for Day 22 Mortality: single IP dose (mg/kg); for clinical symptoms: after single IP dose, compared with model control group
Procedure, shortened: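 Test compounds formulated in ethanol:Cremophor EL:saline (5:5:90), vehicle alone as control, in HCT-116 subcutaneous xenografts in female Balb/c nudes (6/group, start 60–150 mm^3). Weight measured three times weekly, tumour weight at end; unpaired t-test on Mean±SEM data.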

[2] = system: ICR mice; assay: in vivo; settings: female ICR mice; single-dose ip
Procedure, shortened: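 MTD, the dose without mortality, body-weight loss over 10% from Day 0 or marked adverse signs, was found by stepwise up/down single intraperitoneal dosing of female SPF ICR mice. Vehicle: ethanol:Cremophor EL:saline 5:5:90. Animals weighed daily and clinically checked twice daily for up to 14 days.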

[3] = system: HCT-116 colon cancer xenografts; assay: Tumor growth inhibition of HCT-116 colon cancer xenografts in tumor-bearing nude mice (tumor volume, TGI %, RTV, T/C %); type: in vivo, Balb/c Nude mice; settings: G10-G16 groups, single IP 400 mg/kg; for Tumor volume, Day 0 / Day 1 (RTV) / Tumor volume, Day 1 / Day 2 (RTV) / Tumor volume, Day 2 / Day 4 (RTV) / Tumor volume, Day 4 / Day 7 (RTV) / Tumor volume, Day 7 / Day 9 (RTV) / Tumor volume, Day 9 / Day 11 (RTV) / Tumor volume, Day 11 / Day 14 (RTV) / Tumor volume, Day 14 / Day 16 (RTV) / Tumor volume, Day 16 / Day 18 (RTV) / Tumor volume, Day 18 / Day 21 (RTV) / Tumor volume, Day 21 / Day 23 (RTV) / Tumor volume, Day 23 / Day 25 (RTV) / Tumor volume, Day 25 / Day 28 (RTV) / Tumor volume, Day 28 / Day 30 (RTV) / Tumor volume, Day 30: Mean±SEM
Procedure, shortened: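 Tumors in HCT-116-inoculated nude mice were sized three times weekly by diameter, with volume V=3/4π(D/2)^3. Significance set at P<0.05.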

## CCCCOC(=O)Nc1nc(=O)n(C2OC(COC(=O)COc3nc(Cl)c(Cl)cc3Cl)C(O)C2(F)F)cc1I (stereo not shown) [Compound G11]
[1]
  Weight change rate, Day 0: 0.00%
  Weight of mice, Day 0: 20.48 ± 0.27 g
  Weight change rate, Day 1: −5.41 ± 1.27 %
  Weight of mice, Day 1: 19.38 ± 0.43 g
  Weight change rate, Day 2: −6.03 ± 0.57 %
  Weight of mice, Day 2: 19.25 ± 0.31 g
  Weight change rate, Day 4: −2.00 ± 0.76%
  Weight of mice, Day 4: 20.07 ± 0.18 g
  Weight change rate, Day 7: −3.58 ± 1.49%
  Weight of mice, Day 7: 19.73 ± 0.17 g
  Weight change rate, Day 9: −0.18 ± 1.13%
  Weight of mice, Day 9: 20.43 ± 0.14 g
  Weight change rate, Day 11: 1.05 ± 1.44%
  Weight of mice, Day 11: 20.68 ± 0.20 g
  Weight change rate, Day 14: −1.81 ± 2.2%
  Weight of mice, Day 14: 20.10 ± 0.40 g
  Weight change rate, Day 16: 0.01 ± 2.83%
  Weight of mice, Day 16: 20.47 ± 0.49 g
  Weight change rate, Day 18: 1.66 ± 3.62%
  Weight of mice, Day 18: 20.80 ± 0.65 g
  Weight change rate, Day 21: −0.53 ± 3.44%
  Weight of mice, Day 21: 20.35 ± 0.59 g
  Day 22 Mortality: 0%
  Weight change rate, Day 23: −1.07 ± 3.55%
  Weight of mice, Day 23: 20.23 ± 0.57 g
  Weight change rate, Day 25: −0.06 ± 3.97%
  Weight of mice, Day 25: 20.43 ± 0.63 g
  Weight change rate, Day 28: −1.11 ± 3.89%
  Weight of mice, Day 28: 20.22 ± 0.61 g
  Weight change rate, Day 30: 3.01 ± 7.70%
  Weight of mice, Day 30: 21.00 ± 1.02 g
  clinical symptoms: no significant differences in clinical symptoms
[2]
  dose that could be tolerated (maximum tolerated dose, MTD): 400 mg/kg
[3]
  Day 0 (RTV): 1.00
  Tumor volume, Day 0: 71.46 ± 18.69 mm^3
  Day 1 (TGI %): 58.06%
  Day 1 (RTV): 1.00 ± 0.13
  Tumor volume, Day 1: 75.71 ± 22.24** mm^3
  Day 2 (TGI %): 58.57%
  Day 2 (RTV): 1.14 ± 0.16
  Tumor volume, Day 2: 91.91 ± 29.38** mm^3
  Day 4 (TGI %): 56.33%
  Day 4 (RTV): 1.56 ± 0.24
  Tumor volume, Day 4: 129.69 ± 43.49** mm^3
  Day 7 (TGI %): 53.56%
  Day 7 (RTV): 2.68 ± 0.29
  Tumor volume, Day 7: 200.84 ± 57.86* mm^3
  Day 9 (TGI %): 35.19%
  Day 9 (RTV): 5.21 ± 0.68
  Tumor volume, Day 9: 382.62 ± 103.38 mm^3
  Day 11 (TGI %): 49.22%
  Day 11 (RTV): 6.61 ± 0.62
  Tumor volume, Day 11: 495.68 ± 140.53* mm^3
  Day 14 (TGI %): 41.98%
  Day 14 (RTV): 12.40 ± 1.29
  Tumor volume, Day 14: 835.57 ± 194.90* mm^3
  Day 16 (TGI %): 41.43%
  Day 16 (RTV): 16.20 ± 1.72
  Tumor volume, Day 16: 1060.78 ± 231.28* mm^3
  Day 18 (TGI %): 36.63%
  Day 18 (RTV): 20.33 ± 2.96
  Tumor volume, Day 18: 1266.27 ± 242.09* mm^3
  Day 21 (TGI %): 32.98%
  Day 21 (RTV): 26.21 ± 3.72
  Tumor volume, Day 21: 1638.64 ± 312.92 mm^3
  Day 23 (TGI %): 28.91%
  Day 23 (RTV): 27.62 ± 4.39
  Tumor volume, Day 23: 1678.97 ± 300.64 mm^3
  Day 25 (TGI %): 28.29%
  Day 25 (RTV): 30.73 ± 4.91
  Tumor volume, Day 25: 1851.89 ± 322.59 mm^3
  Day 28 (TGI %): 20.94%
  Day 28 (RTV): 36.20 ± 6.28
  Tumor volume, Day 28: 2126.03 ± 345.51 mm^3
  Day 30 (TGI %): 39.43%
  Day 30 (RTV): 56.36 ± 6.99
  Tumor volume, Day 30: 1699.56 ± 350.73 mm^3

## O=C(COc1nc(Cl)c(Cl)cc1Cl)OCC1OC(n2cc(-c3cn(Cc4ccccc4)nn3)c(NC(=O)OCc3ccc([N+](=O)[O-])cc3)nc2=O)C(F)(F)C1O (stereo not shown) [Compound G13]
[1]
  Weight change rate, Day 0: 0.00%
  Weight of mice, Day 0: 20.43 ± 0.27 g
  Weight change rate, Day 1: −6.73 ± 0.73 %
  Weight of mice, Day 1: 19.05 ± 0.17 g
  Weight change rate, Day 2: −6.78 ± 0.95 %
  Weight of mice, Day 2: 19.05 ± 0.35 g
  Weight change rate, Day 4: −3.29 ± 1.05%
  Weight of mice, Day 4: 19.77 ± 0.40 g
  Weight change rate, Day 7: −2.67 ± 1.20%
  Weight of mice, Day 7: 19.90 ± 0.48 g
  Weight change rate, Day 9: 0.07 ± 2.05%
  Weight of mice, Day 9: 20.47 ± 0.64 g
  Weight change rate, Day 11: 0.61 ± 2.23%
  Weight of mice, Day 11: 20.58 ± 0.69 g
  Weight change rate, Day 14: 0.35 ± 2.75%
  Weight of mice, Day 14: 20.53 ± 0.79 g
  Weight change rate, Day 16: 3.83 ± 3.60%
  Weight of mice, Day 16: 21.25 ± 0.94 g
  Weight change rate, Day 18: 4.84 ± 3.19 %
  Weight of mice, Day 18: 21.45 ± 0.85 g
  Weight change rate, Day 21: 4.12 ± 3.07 %
  Weight of mice, Day 21: 21.30 ± 0.81 g
  Day 22 Mortality: 0%
  Weight change rate, Day 23: 5.17 ± 4.24%
  Weight of mice, Day 23: 21.44 ± 1.05 g
  Weight change rate, Day 25: 9.03 ± 4.91%
  Weight of mice, Day 25: 22.24 ± 1.24 g
  Weight change rate, Day 28: 12.25 ± 3.97%
  Weight of mice, Day 28: 23.08 ± 0.97 g
  Weight change rate, Day 30: 13.32 ± 4.25%
  Weight of mice, Day 30: 23.30 ± 1.07 g
  clinical symptoms: no significant differences in clinical symptoms
[2]
  dose that could be tolerated (maximum tolerated dose, MTD): 400 mg/kg
[3]
  Day 0 (RTV): 1.00
  Tumor volume, Day 0: 61.03 ± 13.76* mm^3
  Day 1 (TGI %): 77.92%
  Day 1 (RTV): 0.91 ± 0.12
  Tumor volume, Day 1: 48.89 ± 5.84** mm^3
  Day 2 (TGI %): 76.34%
  Day 2 (RTV): 0.95 ± 0.11
  Tumor volume, Day 2: 52.50 ± 8.43** mm^3
  Day 4 (TGI %): 73.88%
  Day 4 (RTV): 1.31 ± 0.07
  Tumor volume, Day 4: 77.58 ± 16.80** mm^3
  Day 7 (TGI %): 68.32%
  Day 7 (RTV): 2.39 ± 0.28
  Tumor volume, Day 7: 137.02 ± 30.02** mm^3
  Day 9 (TGI %): 55.73%
  Day 9 (RTV): 4.07 ± 0.37
  Tumor volume, Day 9: 261.35 ± 79.51* mm^3
  Day 11 (TGI %): 56.17%
  Day 11 (RTV): 6.38 ± 0.77
  Tumor volume, Day 11: 427.82 ± 136.59** mm^3
  Day 14 (TGI %): 46.84%
  Day 14 (RTV): 11.17 ± 1.45
  Tumor volume, Day 14: 765.65 ± 247.40* mm^3
  Day 16 (TGI %): 43.43%
  Day 16 (RTV): 15.55 ± 1.37
  Tumor volume, Day 16: 1024.48 ± 288.64* mm^3
  Day 18 (TGI %): 36.04%
  Day 18 (RTV): 19.86 ± 1.32
  Tumor volume, Day 18: 1278.22 ± 336.74 mm^3
  Day 21 (TGI %): 32.28%
  Day 21 (RTV): 26.98 ± 0.99
  Tumor volume, Day 21: 1655.72 ± 370.44 mm^3
  Day 23 (TGI %): 39.64%
  Day 23 (RTV): 27.42 ± 1.09
  Tumor volume, Day 23: 1425.63 ± 355.57 mm^3
  Day 25 (TGI %): 38.81%
  Day 25 (RTV): 30.60 ± 1.01
  Tumor volume, Day 25: 1580.18 ± 380.76 mm^3
  Day 28 (TGI %): 44.77%
  Day 28 (RTV): 35.76 ± 0.97
  Tumor volume, Day 28: 1485.25 ± 290.76 mm^3
  Day 30 (TGI %): 38.58%
  Day 30 (RTV): 42.06 ± 2.09
  Tumor volume, Day 30: 1723.43 ± 289.91 mm^3
